From patent US20090304692A1, “TRIAZINE COMPOUNDS AS PI3 KINASE AND MTOR INHIBITORS” (Wyeth, priority 2008, published 2009)
Values joined by “and” are separate entries in the source; they are usually repeats but may differ in a detail not shown here. Equal values may be shown once. Read-outs that look alike come from different tables or passages of the source.

Key:
[1] = biological target: Human mTOR (FLAG-TOR) (Homo sapiens, UniProt P42345); test: mTOR kinase assay (DELFIA format, purified enzyme); type: biochemical; settings: read-out: IC50 mTOR
[2] = system: human breast MDA-MB-361 tumor cell line; test: In vitro cell culture growth assay (MTS), MDA-MB-361; type: cell-based; settings: Homo sapiens, three days after drug treatment, read-out: IC50 MDA-MB-361
[3] = system: human prostate PC3-mm2 tumor cell line; test: In vitro cell culture growth assay (MTS), PC3-mm2; type: cell-based; settings: Homo sapiens, PC3MM2, 72 h, three days after drug treatment, read-out: IC50 PC3-mm2
[4] = biological target: PI3K-α (Homo sapiens, UniProt P42336); test: PI3K-alpha fluorescence polarization assay; settings: read-out: IC50 PI3Kα
[5] = biological target: PI3K-γ (Homo sapiens, UniProt P48736); test: PI3K-gamma fluorescence polarization assay; settings: read-out: IC50 PI3Kγ
[6] = MDA-MB-361, 72 h, MTS cell growth assay
[7] = 72 h, MTS cell growth assay, MDA-MB-361 cells
[8] = MTS cell growth assay, PC3-mm2 cells
[9] = MDA-MB-361, 72 h, MTS cell growth assay, MDA-MB-361 cells

PI3K-γ, sequence (P48736 whole entry, species assumed): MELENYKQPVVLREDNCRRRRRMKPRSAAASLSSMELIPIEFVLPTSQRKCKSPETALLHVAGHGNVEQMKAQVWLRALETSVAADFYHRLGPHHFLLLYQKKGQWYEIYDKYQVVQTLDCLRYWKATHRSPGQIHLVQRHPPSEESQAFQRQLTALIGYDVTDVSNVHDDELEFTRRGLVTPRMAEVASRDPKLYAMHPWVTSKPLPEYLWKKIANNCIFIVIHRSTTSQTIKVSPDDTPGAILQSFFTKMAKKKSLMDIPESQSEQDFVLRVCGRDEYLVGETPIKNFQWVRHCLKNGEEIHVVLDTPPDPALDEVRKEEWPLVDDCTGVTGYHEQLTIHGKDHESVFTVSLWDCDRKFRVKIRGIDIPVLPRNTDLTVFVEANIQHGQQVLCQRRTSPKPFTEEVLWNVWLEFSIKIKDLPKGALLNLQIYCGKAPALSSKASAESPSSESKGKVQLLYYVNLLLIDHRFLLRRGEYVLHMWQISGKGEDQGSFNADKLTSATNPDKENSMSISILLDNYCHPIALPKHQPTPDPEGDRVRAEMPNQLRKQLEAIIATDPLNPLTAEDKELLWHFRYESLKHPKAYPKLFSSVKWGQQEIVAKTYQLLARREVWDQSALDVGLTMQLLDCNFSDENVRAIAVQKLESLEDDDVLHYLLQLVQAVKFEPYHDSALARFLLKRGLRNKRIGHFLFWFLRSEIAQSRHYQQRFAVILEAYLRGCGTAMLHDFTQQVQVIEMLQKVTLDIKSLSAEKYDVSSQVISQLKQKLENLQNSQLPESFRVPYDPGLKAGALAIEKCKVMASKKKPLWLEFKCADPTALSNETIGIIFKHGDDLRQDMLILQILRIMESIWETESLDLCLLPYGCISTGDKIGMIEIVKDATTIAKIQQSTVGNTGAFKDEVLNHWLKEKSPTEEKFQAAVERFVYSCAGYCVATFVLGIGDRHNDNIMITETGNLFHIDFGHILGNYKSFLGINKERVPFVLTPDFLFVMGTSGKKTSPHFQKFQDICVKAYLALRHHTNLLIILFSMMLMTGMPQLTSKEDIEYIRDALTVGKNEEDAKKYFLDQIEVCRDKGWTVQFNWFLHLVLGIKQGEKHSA
PI3K-α, sequence (P42336 whole entry, species assumed): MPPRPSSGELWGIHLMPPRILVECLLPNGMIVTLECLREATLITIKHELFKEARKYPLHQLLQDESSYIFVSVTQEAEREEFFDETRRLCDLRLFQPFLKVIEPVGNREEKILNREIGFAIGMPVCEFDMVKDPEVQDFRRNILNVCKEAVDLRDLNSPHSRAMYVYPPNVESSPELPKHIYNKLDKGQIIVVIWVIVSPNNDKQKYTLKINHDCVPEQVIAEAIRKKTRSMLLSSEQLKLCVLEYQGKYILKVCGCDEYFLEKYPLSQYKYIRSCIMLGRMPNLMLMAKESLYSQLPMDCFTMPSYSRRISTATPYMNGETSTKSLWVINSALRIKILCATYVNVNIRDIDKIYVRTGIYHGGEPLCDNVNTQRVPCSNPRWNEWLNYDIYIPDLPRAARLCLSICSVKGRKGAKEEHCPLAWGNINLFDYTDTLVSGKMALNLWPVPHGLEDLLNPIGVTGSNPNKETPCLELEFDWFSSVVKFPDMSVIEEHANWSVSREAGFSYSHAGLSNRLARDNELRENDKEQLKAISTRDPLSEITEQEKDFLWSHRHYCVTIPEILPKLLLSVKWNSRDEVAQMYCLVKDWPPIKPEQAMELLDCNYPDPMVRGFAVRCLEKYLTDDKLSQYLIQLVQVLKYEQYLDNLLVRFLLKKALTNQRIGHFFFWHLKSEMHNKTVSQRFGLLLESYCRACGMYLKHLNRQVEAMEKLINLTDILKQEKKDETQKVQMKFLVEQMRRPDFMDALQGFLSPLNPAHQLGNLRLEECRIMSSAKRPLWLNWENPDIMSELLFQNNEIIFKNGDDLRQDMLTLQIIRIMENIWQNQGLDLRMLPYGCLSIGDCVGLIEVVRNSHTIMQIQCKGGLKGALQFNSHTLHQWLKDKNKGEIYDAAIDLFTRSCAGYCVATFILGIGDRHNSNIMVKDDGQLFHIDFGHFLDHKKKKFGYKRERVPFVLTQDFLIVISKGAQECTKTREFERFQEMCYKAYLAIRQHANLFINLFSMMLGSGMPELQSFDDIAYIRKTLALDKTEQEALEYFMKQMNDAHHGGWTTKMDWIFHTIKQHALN
PI3K-α, sequence (P27986 whole entry partner, species assumed): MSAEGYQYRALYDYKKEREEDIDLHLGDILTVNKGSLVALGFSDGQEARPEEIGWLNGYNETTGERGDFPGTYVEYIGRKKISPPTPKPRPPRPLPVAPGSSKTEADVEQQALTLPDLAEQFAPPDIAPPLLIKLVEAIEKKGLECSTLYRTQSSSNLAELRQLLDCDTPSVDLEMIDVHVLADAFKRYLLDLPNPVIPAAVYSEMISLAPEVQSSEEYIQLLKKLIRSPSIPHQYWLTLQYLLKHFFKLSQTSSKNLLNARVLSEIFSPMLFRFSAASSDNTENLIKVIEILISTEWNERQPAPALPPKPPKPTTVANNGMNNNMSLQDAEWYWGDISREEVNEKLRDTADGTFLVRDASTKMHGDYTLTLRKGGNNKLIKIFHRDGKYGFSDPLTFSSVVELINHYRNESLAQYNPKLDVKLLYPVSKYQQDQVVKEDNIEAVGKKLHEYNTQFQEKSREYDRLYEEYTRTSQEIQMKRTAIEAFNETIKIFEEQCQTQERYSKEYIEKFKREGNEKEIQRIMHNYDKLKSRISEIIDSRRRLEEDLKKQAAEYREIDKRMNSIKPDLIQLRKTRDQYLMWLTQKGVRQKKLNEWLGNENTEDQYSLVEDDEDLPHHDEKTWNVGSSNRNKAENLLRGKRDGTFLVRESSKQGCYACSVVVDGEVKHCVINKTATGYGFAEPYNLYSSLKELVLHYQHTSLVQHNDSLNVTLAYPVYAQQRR
Human mTOR (FLAG-TOR), sequence (P42345 1360-2549 limits assumed): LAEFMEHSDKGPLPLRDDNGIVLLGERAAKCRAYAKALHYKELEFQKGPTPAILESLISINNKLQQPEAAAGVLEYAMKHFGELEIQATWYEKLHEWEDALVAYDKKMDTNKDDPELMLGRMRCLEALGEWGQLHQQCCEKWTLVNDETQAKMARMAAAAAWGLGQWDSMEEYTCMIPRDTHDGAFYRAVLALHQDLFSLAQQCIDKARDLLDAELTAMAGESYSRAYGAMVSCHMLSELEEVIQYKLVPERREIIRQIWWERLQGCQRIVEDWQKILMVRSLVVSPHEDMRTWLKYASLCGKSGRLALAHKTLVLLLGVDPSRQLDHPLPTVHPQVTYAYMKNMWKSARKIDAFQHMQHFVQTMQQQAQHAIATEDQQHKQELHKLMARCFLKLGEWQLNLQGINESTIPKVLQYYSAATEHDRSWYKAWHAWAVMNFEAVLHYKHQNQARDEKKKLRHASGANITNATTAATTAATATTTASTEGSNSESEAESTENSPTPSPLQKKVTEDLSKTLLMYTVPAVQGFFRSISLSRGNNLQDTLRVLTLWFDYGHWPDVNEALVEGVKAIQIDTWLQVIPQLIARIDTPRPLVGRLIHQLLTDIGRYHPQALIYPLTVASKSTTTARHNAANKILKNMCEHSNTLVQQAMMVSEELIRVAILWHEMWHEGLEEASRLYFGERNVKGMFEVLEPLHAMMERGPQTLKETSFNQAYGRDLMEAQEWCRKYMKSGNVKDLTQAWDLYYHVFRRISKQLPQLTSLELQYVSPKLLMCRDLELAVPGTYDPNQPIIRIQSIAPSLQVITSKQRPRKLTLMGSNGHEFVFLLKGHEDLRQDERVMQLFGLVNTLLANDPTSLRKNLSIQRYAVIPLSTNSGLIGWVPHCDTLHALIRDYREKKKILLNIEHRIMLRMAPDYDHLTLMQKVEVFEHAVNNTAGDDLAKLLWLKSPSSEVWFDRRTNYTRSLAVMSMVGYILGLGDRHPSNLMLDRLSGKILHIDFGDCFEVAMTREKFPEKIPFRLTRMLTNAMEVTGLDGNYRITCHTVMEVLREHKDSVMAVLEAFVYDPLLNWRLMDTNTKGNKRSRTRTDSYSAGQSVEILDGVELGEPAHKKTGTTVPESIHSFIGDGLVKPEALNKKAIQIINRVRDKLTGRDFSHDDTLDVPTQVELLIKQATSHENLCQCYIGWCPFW

| Structure (SMILES) | IC50 [1] | IC50 [2, 6] | IC50 ([3]; MTS cell growth assay) | IC50 [4] | IC50 [5] | IC50 [2, 7] | IC50 [3, 8] | IC50 ([5]; listed as 673) | IC50 [2, 9] | IC50 ([4]; listed as 536) | IC50 ([5]; listed as 536) | IC50 ([5]; listed as 707) | IC50 ([2]; 72 h, MDA-MB-361 cells, MTS) | IC50 ([3]; PC3-mm2 cells, MTS) |
| --- | --- | --- | --- | --- | --- | --- | --- | --- | --- | --- | --- | --- | --- | --- |
| CCCCc1nc(-c2ccc(NC(=O)Nc3ccc(CO)cc3)cc2)nc(N2CCOCC2)n1 [Example 239, 1-[4-(4-butyl-6-morpholin-4-yl-1,3,5-triazin-2-yl)phenyl]-3-[4-(hydroxymethyl)phenyl]urea] | 3.2 nM | 184 nM | 317 nM | 11 nM | 38 nM |  |  |  |  |  |  |  |  |  |
| CCCCc1nc(-c2ccc(NC(=O)Nc3ccc(C=O)cc3)cc2)nc(N2CCOCC2)n1 [Example 255, 1-[4-(4-butyl-6-morpholin-4-yl-1,3,5-triazin-2-yl)phenyl]-3-(4-formylphenyl)urea] | 16 nM | 174 nM | 328 nM | 48 nM | 85 nM |  |  |  |  |  |  |  |  |  |
| O=C(Nc1ccccc1)Nc1ccc(-c2nc(NC3CNC3)nc(N3CCOCC3)n2)cc1 [Example 17, 1-{4-[4-(azetidin-3-ylamino)-6-morpholin-4-yl-1,3,5-triazin-2-yl]phenyl}-3-phenylurea] | 14 nM | 501 nM | 994 nM | 8 nM | 90 nM |  |  |  |  |  |  |  |  |  |
| COCCNC(=O)c1ccc(NC(=O)Nc2ccc(-c3nc(N4CCOCC4)nc(N4CCN(C(=O)N(C)C)CC4)n3)cc2)cc1 [Example 647, 4-(4-{4-[({4-[(2-methoxyethyl)carbamoyl]phenyl}carbamoyl)amino]phenyl}-6-morpholin-4-yl-1,3,5-triazin-2-yl)-N,N-dimethylpiperazine-1-carboxamide] | 3 nM |  |  | 24.3 nM | 107 nM | 46 nM | 136 nM |  |  |  |  |  |  |  |
| CC(C)Cc1nc(-c2ccc(NC(=O)Nc3ccc(N4CCN(C)CC4)cc3)cc2)nc(N2CCOCC2)n1 [Example 297, 1-[4-(4-methylpiperazin-1-yl)phenyl]-3-{4-[4-(2-methylpropyl)-6-morpholin-4-yl-1,3,5-triazin-2-yl]phenyl}urea] | 10 nM | 115 nM | 290 nM | 38 nM | 70 nM |  |  |  |  |  |  |  |  |  |
| O=C(Nc1ccccc1)Nc1ccc(-c2nc(N3CCOCC3)nc(N3C4CCC3CC(O)C4)n2)cc1 (stereo not drawn) [Example 685, 1-{4-[4-(3-hydroxy-8-azabicyclo[3.2.1]oct-8-yl)-6-morpholin-4-yl-1,3,5-triazin-2-yl]phenyl}-3-phenylurea] | 0.825 nM |  |  | 7 nM | 26.5 nM | > 10000 nM | > 10000 nM |  |  |  |  |  |  |  |
| O=C(Nc1ccc(CO)cc1)Nc1ccc(-c2nc(N3CCOCC3)nc(N3C4CCC3COC4)n2)cc1 [Example 38, 1-[4-(hydroxymethyl)phenyl]-3-{4-[4-morpholin-4-yl-6-(3-oxa-8-azabicyclo[3.2.1]oct-8-yl)-1,3,5-triazin-2-yl]phenyl}urea] | 0.28 nM and 0.43 nM | 15 nM | 28 nM | 7 nM | 91 nM |  | 28 nM | 98.7 nM |  |  |  |  |  |  |
| CCc1nc(-c2ccc(NC(=O)Nc3ccc(C(=O)N4CCN(C)CC4)cc3)cc2)nc(N2CCOCC2)n1 [Example 236, 1-[4-(4-ethyl-6-morpholin-4-yl-1,3,5-triazin-2-yl)phenyl]-3-{4-[(4-methylpiperazin-1-yl)carbonyl]phenyl}urea] | 11 nM and 9.4 nM | 22.3 nM | 67 nM | 3 nM | 15 nM |  | 67 nM |  | 22.3 nM | 1.5 nM | 13 nM |  |  |  |
| CN(C)CCN(C)C(=O)c1ccc(NC(=O)Nc2ccc(-c3nc(N4CCOCC4)nc(N4C5COCC4COC5)n3)cc2)cc1 [Example 768, N-[2-(dimethylamino)ethyl]-4-[({4-[4-(3,7-dioxa-9-azabicyclo[3.3.1]non-9-yl)-6-morpholin-4-yl-1,3,5-triazin-2-yl]phenyl}carbamoyl)amino]-N-methylbenzamide] | 0.115 nM |  |  | 1.2 nM | 18.5 nM | 7 nM | 8 nM |  |  |  |  |  |  |  |
| O=C(Nc1ccccc1)Nc1ccc(-c2nc(N3CCOCC3)nc(N3CCC4(CC3)OCCO4)n2)cc1 [Example 132, 1-{4-[4-(1,4-dioxa-8-azaspiro[4.5]dec-8-yl)-6-morpholin-4-yl-1,3,5-triazin-2-yl]phenyl}-3-phenylurea] | 26 nM and 34 nM | 586 nM | 1010 nM | 14 nM | 234 nM |  | 1010 nM |  |  |  |  | 234 nM |  |  |
| O=C(Nc1ccc(CO)cc1)Nc1ccc(-c2nc(N3CCOCC3)nc(N3CCOCC3)n2)cc1 [Example 51, 1-[4-(4,6-dimorpholin-4-yl-1,3,5-triazin-2-yl)phenyl]-3-[4-(hydroxymethyl)phenyl]urea] | 1.9 nM | < 30 nM | < 30 nM | 1 nM | 15 nM |  |  |  |  |  |  |  |  |  |
| CCc1nc(-c2ccc(NC(=O)Nc3ccc(C(=O)NCc4ccncc4)cc3)cc2)nc(N2CCOCC2)n1 [Example 321, 4-({[4-(4-ethyl-6-morpholin-4-yl-1,3,5-triazin-2-yl)phenyl]carbamoyl}amino)-N-(pyridin-4-ylmethyl)benzamide] | 16.5 nM | 106 nM | 325 nM | 25 nM | 116 nM |  |  |  |  |  |  |  |  |  |
| O=C(Nc1ccncc1)Nc1ccc(-c2nc(N3CCOCC3)nc(N3C4COCC3[C@@H](O)C4)n2)cc1 (stereo partly drawn) [Example 818, 1-(4-{4-[(6S)-6-hydroxy-3-oxa-8-azabicyclo[3.2.1]oct-8-yl]-6-morpholin-4-yl-1,3,5-triazin-2-yl}phenyl)-3-pyridin-4-ylurea] | 2 nM |  |  | 37.7 nM | 185 nM |  |  |  |  |  |  |  | 129 nM | 237 nM |
| O=C(Nc1ccc(C(=O)NC2CN3CCC2CC3)cc1)Nc1ccc(-c2nc(N3CCOCC3)nc(N3CCOCC3)n2)cc1 (stereo not drawn) [Example 73, 4-(3-(4-(4,6-dimorpholino-1,3,5-triazin-2-yl)phenyl)ureido)-N-(quinuclidin-3-yl)benzamide] | 0.77 nM | 30 nM | 107 nM | 0.3 nM | 7 nM |  |  |  |  |  |  |  |  |  |
| CN1CCN(C(=O)c2ccc(NC(=O)Nc3ccc(-c4nc(N5CCCC5)nc(N5CCOCC5)n4)cc3)cc2)CC1 [Example 607, 1-{4-[(4-methylpiperazin-1-yl)carbonyl]phenyl}-3-[4-(4-morpholin-4-yl-6-pyrrolidin-1-yl-1,3,5-triazin-2-yl)phenyl]urea] | 19 nM |  |  | 12 nM | 94 nM |  | 213 nM |  | 24 nM |  |  |  |  |  |
| CN(C)CCN(C)C(=O)c1ccc(NC(=O)Nc2ccc(-c3nc(N4CCOCC4)nc(N4C5CCC4COC5)n3)cc2)cc1 [Example 698, N-[2-(dimethylamino)ethyl]-N-methyl-4-[({4-[4-morpholin-4-yl-6-(3-oxa-8-azabicyclo[3.2.1]oct-8-yl)-1,3,5-triazin-2-yl]phenyl}carbamoyl)amino]benzamide] | 0.302 nM |  |  | 2.7 nM | 44.7 nM | < 3 nM | 6 nM |  |  |  |  |  |  |  |
| CN1CCN(C(=O)c2ccc(NC(=O)Nc3ccc(-c4nc(-c5cccs5)nc(N5CCOCC5)n4)cc3)cc2)CC1 [Example 559, 1-{4-[(4-methylpiperazin-1-yl)carbonyl]phenyl}-3-{4-[4-morpholin-4-yl-6-(2-thienyl)-1,3,5-triazin-2-yl]phenyl}urea] | 10.1 nM |  |  | 2 nM | 13.5 nM |  | 149 nM |  | 8 nM |  |  |  |  |  |
| Cc1cc(NC(=O)Nc2ccc(-c3nc(N4CCOCC4)nc(N4CCOC[C@@H]4C)n3)cc2)ccn1 [Example 92, 1-(4-{4-[(3S)-3-methylmorpholin-4-yl]-6-morpholin-4-yl-1,3,5-triazin-2-yl}phenyl)-3-(2-methylpyridin-4-yl)urea] | 2.35 nM | 140 nM | 87 nM | 11 nM | 92 nM |  |  |  |  |  |  |  |  |  |
| O=C(Nc1ccc(O)cc1)Nc1ccc(-c2nc(N3CCOCC3)nc(N3CCOCC3)n2)cc1 [Example 54, 1-[4-(4,6-dimorpholin-4-yl-1,3,5-triazin-2-yl)phenyl]-3-(4-hydroxyphenyl)urea] | 4.75 nM | 133 nM | 214 nM | 10 nM | 88 nM |  |  |  |  |  |  |  |  |  |
| O=C(Nc1ccc(F)cc1)Nc1ccc(-c2nc(NC3CNC3)nc(N3CCOCC3)n2)cc1 [Example 19, 1-{4-[4-(azetidin-3-ylamino)-6-morpholin-4-yl-1,3,5-triazin-2-yl]phenyl}-3-(4-fluorophenyl)urea] | 39 nM | 1030 nM | 1600 nM | 23 nM | 206 nM |  |  |  |  |  |  |  |  |  |
| O=C(Nc1ccc(-c2nc(N3CCOCC3)nc(N3C4CCC3COC4)n2)cc1)Nc1ccnc(-c2cccnc2)c1 [Example 336, 1-(2,3′-bipyridin-4-yl)-3-{4-[4-morpholin-4-yl-6-(3-oxa-8-azabicyclo[3.2.1]oct-8-yl)-1,3,5-triazin-2-yl]phenyl}urea] | 3.6 nM and 3.45 nM | 56 nM | 45 nM | 40 nM | 44 nM |  | 45 nM |  |  |  |  |  |  |  |
